Measured values reported in patent US9526793B1, “Salts of phenylethylamines and inorganic acids and methods of use thereof” (priority 2013, dated 2016).
Read-outs that look alike come from different tables or passages of the source.

Tests used:
[1] = Length of time the subject maintained a 5.5 mph pace on an elliptical trainer (athletic performance); type: in vivo, human; conditions: single oral capsule, 600 mg 2-phenylethylamine nitrate or equimolar admixture
Method: (§1) Solid dose capsules (size “00”, gelatin) were prepared containing either 600 mg of 2-phenylethylamine nitrate or equimolar quantities of an admixture of 2-phenylethylamine HCl and sodium nitrate (NaNO3). A placebo filled with an inert substance (200 mesh guar gum) was also prepared. The subject was given a single capsule containing 2-phenylethylamine nitrate, an admixture of 2-phenylethylamine HCl and NaNO3, or the placebo.
After oral administration of the compound, the subject's ability to maintain a speed of about 5.5 mph on an elliptical trainer was measured. The length of time was recorded before the subject became fatigued and was no longer able to maintain this pace (see Table 1). Athletic performance was measured at times soon after administration of the compound before the subject had engaged in significant physical activity that day (at about 9:30 am each day). The subject was blinded to the identity of the capsules.

[2] = Subject-reported duration of euphoria and of vasodilation (drop in systolic blood pressure, sphygmomanometer); type: in vivo, human; conditions: 600 mg oral capsule
Method: as §1
The subject estimated that the effect of the 2-phenylethylamine nitrate lasted substantially longer than the effect of the admixture. For example, the 2-phenylethylamine nitrate produced a sense of euphoria that typically lasted 50% longer than that experienced with the admixture.

[3] = Sexual performance of the subject (penile erectile genesis and maintainability); type: in vivo, human; conditions: single oral capsule
Method: Solid dose capsules were prepared as described in Example 3. The subject was given a single capsule containing 2-phenylethylamine nitrate, an admixture of 2-phenylethylamine HCl and NaNO3, or a placebo.
Sexual performance was evaluated in the subject by the relative length of time and number of times they were able to maintain an erection and engage in sexual intercourse (i.e., penile erectile genesis and maintainability) with their partner during a given period.

[4] = Clinical observation of onset and duration of athletic performance-enhancing effects after oral dose; type: in vivo
[5] = Tolerability of daily oral doses; type: in vivo
[6] = as measured using the HCl salt; cited from earlier work
[7] = cited from earlier work

| SMILES | Percent Improvement Compared to Placebo [1] | Time (Minutes) that the subject maintained a 5.5 mph pace on an elliptical ([1]; average of several occasions) | Duration of vasodilation versus the admixture ([2]; measured by drop in systolic blood pressure) | Sense of euphoria: duration longer than that experienced with the admixture ([2]; subject's estimate, versus admixture) | Sexual performance after administration ([3]; compared with admixture or placebo) | Reduction of refractory time between erections ([3]; subject, self-reported) | Time to clinically observable athletic performance-enhancing effects after ingestion ([4]; single dose of 0.100 grams to 0.600 grams) | Time for which athletic performance-enhancing effects are clinically observable ([4]; single, oral dose as low as 0.200 grams) | Daily oral dose tolerated without significant side effects [5] | pKb [6] | half-life ([7]; in vivo) | Increase of brain levels when taking an MAO inhibitor ([7]; initial 2-phenylethylamine brain concentration low) | Increase of brain levels when taking an MAO inhibitor ([7]; initial concentration high) |
| --- | --- | --- | --- | --- | --- | --- | --- | --- | --- | --- | --- | --- | --- |
| NCCc1ccccc1.O=[N+]([O-])O [2-Phenylethylamine Nitrate, 2-phenylethylamine nitrate] | 10% | 66 min | at least twice as long | 50% | surprising enhancement in their sexual performance | ~35% | ≤ 10 min | ≤ 6 h | ≤ 3.00 grams |  |  |  |  |
| NCCc1ccccc1 [2-phenylethylamine] |  |  |  |  |  |  |  |  |  | 4.17 | 5 to 10 min | ~1000 fold | 3-4 times |
